Assay results as given in US20260022134A1, “N-HETEROCYCLE-CONTAINING BORIC ACID COMPOUND AND PREPARATION METHOD AND APPLICATION THEREOF” (Hangzhou City University, priority 2022, published 2026).

Legend:
Type in all cases: cell-based
[1] = test system: glioblastoma cells U251; experiment: Transwell cell migration assay; settings: cells U251, 24 h, different concentrations
Protocol: (§1) The cells of the logarithmic phase were taken and dissociated by 0.25% trypsin-EDTA and blown into single cells. 200 μL of serum-free culture medium containing 5×10^4 cells was sucked and added into the Transwell upper chamber and 600 μL of culture medium containing 20% FBS was transferred to the Transwell lower chamber and drugs of corresponding concentrations were added to the upper and lower chambers. Culture was performed for 24 h in the cell incubator. In each well of the 24-well plate, 300 μL of 1% crystal violet methanol solution was added. After the culture medium was sucked and discarded, the Transwell chamber was placed into crystal violet and fixed free from light at room temperature and stained for 30 min. The chamber was picked by tweezers into the PBS buffer solution and washed slowly, and the cells and surplus crystal violet in the upper chamber were gently wiped with a cotton swab and then photographed under microscope for counting to calculate the number of the migrating cells of each group. […]

[2] = test system: glioblastoma cells A172; experiment: Transwell cell migration assay; settings: cells A172, 24 h, different concentrations
Protocol: as §1

[3] = test system: glioma cells U87; experiment: Flow cytometry cell cycle analysis (PI staining); settings: cells U87, 24 h treatment; increased from 11.99%
Protocol: (§2) The cells of the logarithmic phase were taken and dissociated by 0.25% trypsin-EDTA and blown into single cells, and inoculated into the 6-well plate with a density of 2000 to 3000 pcs/well, and gently shaken to disperse the cells uniformly and then placed into 5% CO2, 37° C. incubator for incubation. After 24 h, the original culture medium was discarded and a fresh cell culture medium containing drugs of corresponding concentrations was then added; after the cells were incubated for 24 h, the cells were dissociated by 0.25% trypsin-EDTA and cleaned twice with 1 mL of precooled PBS and then re-suspended with 250 μl PBS and slowly added dropwise into 750 μl of precooled 75% ethyl alcohol, and then fixed at the temperature of −20° C. overnight. […] Propidium iodide (PI) with a final concentration of […] was added for staining of 1 h free from light at room temperature, and then filtered by gauze and then transferred to a flow tube and detected and analyzed by a flow cytometer.
(§3) In order to determine the mechanism of the growth inhibition effect of (3-((5-chloro-4-(1H-pyrrolo[2,3-b]pyridin-3-yl)pyrimidin-2-yl)amino)phenyl)boric acid on the cells U251 and U87, after 24 h following the treatment with different concentrations of (3-((5-chloro-4-(1H-pyrrolo[2,3-b]pyridin-3-yl)pyrimidin-2-yl)amino)phenyl)boric acid, the cell cycle was analyzed and evaluated by flow cytometry.

[4] = test system: glioma cells U251; experiment: Flow cytometry cell cycle analysis (PI staining); settings: cells U251, 24 h treatment; increased from 14.70%
Protocol: as §2, §3

[5] = test system: p-Stat3, p-Akt, c-Myc, Cyclin B1, p-Erk1/2 in cells U251; experiment: Western blot of cell protein expressions; settings: cells U251, after 24 h treatment
Protocol: (§4) The cell supernatant was discarded and the cells were washed twice with PBS; based on cell confluence, a corresponding amount of Loading buffer was added, and stirred by a pipette tip while fully covered, and then collected to a centrifuge tube and centrifuged and then placed into a high-temperature metal bath of 100° C. for denaturation of 10 min, then cooled on ice and centrifuged and stored at the temperature of −20° C. for later use in the Western blot. The loading volume was adjusted by Western block pre-experiment to ensure the internal control proteins were uniform. • 2) BSA quantitative method
(§5) The cells treated by the trypsin dissociation and collection assay were centrifuged for 4 min at the rotation speed of 1500 rpm/min. The supernatant was discarded and the cells were re-suspended and washed with the pre-cooled PBS and then transferred to al. 5 mL Eppendorf tube and then centrifuged again and the supernatant was all discarded. Cell lysis was carried out on ice, and based on a precipitation amount, a proper amount of RIPA lysis solution was added and blown uniform by the pipette and then stood on ice. The cells were whirled or dispersed once every other 10 min, and 30 min later, the cells were put into a pre-cooled 4° C. centrifugal machine and centrifuged for 30 min at the rotation speed of 12000 rpm/min. The supernatant was sucked to a new Eppendorf tube to obtain a protein sample solution.
(§6) A standard protein BSA was selected for making a standard curve and the BSA was sequentially half-diluted by 10 factors. The protein sample was diluted with deionized water by 10 factors and 5 μL of diluted sample was sucked to a new Eppendorf tube and then 200 μL of BCA reagent was added to each tube (liquid A: liquid B=50:1) and placed in a 37° C. drying oven for incubation of 30 min After completion of the reaction, the liquid was whirled uniformly and 100 μL was sucked to a 96-well plate and measured for the OD value at the position of the wavelength 562 nm. Based on the standard curve, quantification was performed to sub-package the protein sample and then 5×Loading buffer was added for denaturation of 10 min at the temperature of 100° C., and cooled and centrifuged and then stored at the temperature of −20° C. for later use. • 3) Gel preparation: based on the size of target protein molecules, a desired gel was prepared and then solidified and then put into deionized water and stored in 4° C. refrigerator for later use. • 4) Electrophoresis: before electrophoresis, the protein sample was heated for 3 to 5 min at the temperature of 100° C. and then cooled and centrifuged and then loaded. A protein marker was added before the sample and then equal-volume or equal-quantity loading was performed in a sequence. After completion of loading, constant-voltage electrophoresis was performed with the voltage adjusted to 70V. Electrophoresis was stopped when the sample runs to a position 1 cm from the bottom glass plate, and transfer was performed. • 5) Transfer: 1×Transfer buffer 1000 mL containing 10% anhydrous ethanol was prepared, and the anhydrous ethanol activates PVDF membrane for 1 min and then the membrane was put into a Trans Buffer solution. Based on the target protein molecules, gel cutting was performed, and transfer was carried out based on black gel and white membrane. Under the condition of ice water bath, 330 mA constant-current transfer was performed for 70 min. • 6) Blocking: after transfer completion, the membrane was put into 5% skimmed mil powder solution and the shaker was blocked for 1 h at room temperature. • 7) Primary antibody incubation: a corresponding primary antibody was prepared for incubation of a target strip. The primary antibody was put into a 4° C. refrigerator and incubated by the shaker overnight. […]

[6] = test system: p-Stat3, p-Akt, c-Myc, Cyclin B1, p-Erk1/2 in cells U87; experiment: Western blot of cell protein expressions; settings: cells U87, after 24 h treatment
Protocol: as §4, §5, §6

[7] = test system: glioblastoma cells U251; experiment: SRB colorimetric analysis, cell survival/proliferation
Protocol: (§7) After passage to the logarithmic phase, the cells were dissociated by 0.25 trypsin-EDTA and blown into single cells, and with a final cell concentration adjusted to […], inoculated into a 96-well plate with each well 100 μl (edge wells were filled with sterile PBS), 5% CO2, and 37° C. incubation. After 24 h (until a single layer of cells were spread to 30% to 50% of the well bottom), a cell culture solution containing drugs of corresponding concentrations was added and incubated for 24, 48 and 72 h in a 5% CO2, 37° C. incubator. Each drug concentration was provided with three parallel wells. The cells were medicate-cultured for 24, 48 and 72 h and then fixed by trichloroacetic acid (TCA). Each well of the cells was fixed by a pre-cooled 15% TCA liquid 100 μl, and then the 96-well plate was moved to 4° C. and stood for 4 h. The fixing liquid was discarded and the 96 wells were washed five times with sterile triple-distilled water and spin-dried and air-dried in 37° C. drying oven. Each well was added with 100 μl 0.4% SRB solution, and kept free from light and stood for 30 min at room temperature. The SRB not combined with proteins was cleaned with 1% glacial acetic acid and air-dried in 37° C. drying oven. The combined SRB was dissolved by 100 μl 10 mM non-buffer Tris alkaline solution (pH 10.5), and oscillated and mixed uniformly and then measured for the OD value on an enzyme-linked immuno detector. By blank control zero setting, the OD value of each well was measured at the position of a wavelength of 570 nm. The obtained growth inhibition rate of the tumor cells was defined as an in vitro inhibition rate of the drug on the tumor cells. The inhibition rate is […].
(§8) Firstly, we evaluated the growth inhibition effect of (3-((5-chloro-4-(1H-pyrrolo[2,3-b]pyridin-3-yl)pyrimidin-2-yl)amino)phenyl)boric acid on the MG cells U251A172 and U87 of three different glioblastoma cell series. With different concentrations of (3-((5-chloro-4-(1H-pyrrolo[2,3-b]pyridin-3-yl)pyrimidin-2-yl)amino)phenyl)boric acid, the cells U251, A172 and U87 were treated for 24 h, 48 h and 72 h and then based on the SRB detection method, the survival rate of the cells treated by (3-((5-chloro-4-(1H-pyrrolo[2,3-b]pyridin-3-yl)pyrimidin-2-yl)amino)phenyl)boric acid was detected. […] The cytotoxic effect of the U87 was more obvious than those of U251 and A172.

[8] = test system: glioblastoma cells U87; experiment: as above
Protocol: as §7, §8

[9] = test system: glioblastoma cells A172; experiment: as above
Protocol: as §7, §8

[10] = test system: glioblastoma cells U251; experiment: Cell colony-formation assay; settings: cells U251, 14 days, different concentrations
Protocol: (§9) The cells of the logarithmic phase were taken and dissociated by 0.25% trypsin-EDTA and blown into single cells, and inoculated into the 6-well plate with a density of 2000 to 3000 pcs/well, and gently shaken to disperse the cells uniformly and then placed into 5% CO2, 37° C. incubator for incubation. After 24 h, the original culture medium was discarded and a fresh cell culture medium containing drugs of corresponding concentrations was then added, and the cells then were incubated in the incubator for about 14 days. During this period, the fresh culture medium containing the drugs of corresponding concentrations was replaced every two or three days. Frequent observation should be made to ensure that when a macroscopic colony appears in the culture plate, the culture was ended. The supernatant was discarded and cleaning was performed carefully twice with PBS. […] Finally, the number of the formed colonies was calculated.
(§10) In order to determine the effect of (3-((5-chloro-4-(1H-pyrrolo[2,3-b]pyridin-3-yl)pyrimidin-2-yl)amino)phenyl)boric acid on the cell colony formation ability of the glioblastoma, we treated the cells U251 and A172 with different concentrations of (3-((5-chloro-4-(1H-pyrrolo[2,3-b]pyridin-3-yl)pyrimidin-2-yl)amino)phenyl)boric acid and 14 days later, determined the cell colony formation ability by colony determination.

[11] = test system: glioblastoma cells A172; experiment: Cell colony-formation assay; settings: cells A172, 14 days, different concentrations
Protocol: as §9, §10

With `OB(O)c1cccc(Nc2ncc(Cl)c(-c3c[nH]c4ncccc34)n2)c1` [(3-((5-chloro-4-(1H-pyrrolo[2,3-b]pyridin-3-yl)pyrimidin-2-yl)amino)phenyl)boric acid] the “cell migration (number of migrating cells)” value [1] was “significant cell migration inhibition effect”, the “cell migration (number of migrating cells)” value [2] was “significant cell migration inhibition effect” and the “distribution of the G2/M phase” value [3] was 42.62%. For the same compound, the “distribution of the G2/M phase” value [4] was 40.61%, the “Cyclin B1 protein expression” value [5] was “decreased” and the c-Myc protein expression [5] was “decreased”. The p-Akt protein expression [5] was “decreased”, the p-Erk1/2 protein expression [5] was “increased” and the p-Stat3 protein expression [5] was “decreased”. The “Cyclin B1 protein expression” value [6] was “decreased”, the c-Myc protein expression [6] was “decreased” and the p-Akt protein expression [6] was “decreased”. For the same compound, the p-Erk1/2 protein expression [6] was “increased”, the p-Stat3 protein expression [6] was “decreased” and the IC50 ([7]; Homo sapiens, U-251, cells U251 treated for 72 h) was 380 nM. The “cytotoxic effect (survival rate, SRB)” value ([7]; cells U251, 24 h, 48 h and 72 h, different concentrations) was “significant cytotoxic effect”, the “cytotoxic effect (survival rate, SRB)” value ([8]; cells U87, 24 h, 48 h and 72 h, different concentrations) was “significant cytotoxic effect” and the IC50 ([8]; cells U87 treated for 72 h) was 170 nM. The IC50 ([9]; Homo sapiens, A 172, cells A172 treated for 72 h) was 480 nM, the “cytotoxic effect (survival rate, SRB)” value ([9]; cells A172, 24 h, 48 h and 72 h, different concentrations) was “significant cytotoxic effect” and the “number of cell colonies” value [10] was “reduced the number of the cell colonies in a dose-dependent way”. The “number of cell colonies” value [11] was “reduced the number of the cell colonies in a dose-dependent way”.
